Key:
Format in all cases: cell-based
[1] = tested on: acute lymphoblastic leukemia cells CCRF-CEM (K-RasG12D); assay: Cell growth inhibition, suspension cells CCRF-CEM; settings: Homo sapiens, 1 μM, 72 hours, read-out: CCRF-CEM (KRasG12D) % inhibition at 1 μM
Method in brief: (§1)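 Suspension cells, 2 to 4×10^4 per well, cultured with compound in medium with 0.5% FBS (1% DMSO final) for 72 h at 37° C, 5% CO2. Viable cells counted with Cell Counting Reagent; inhibition calculated relative to controls.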

[2] = tested on: phosphorylated MEK (pMEK) in HL60 cells; assay: Ras-Raf signaling inhibition at culture cell level, pMEK; settings: Homo sapiens, HL-60; HL60 (N-RasQ61L), 1 μM test compound, 3 hours
Experimental: The Ras-Raf signaling inhibitory activity of the compound of the present invention at a culture cell level was evaluated by the following method.
The HL60 cells described in Test Example 2 suspended in a medium containing 0.5% (v/v) FBS with each compound solution (final DMSO concentration: 1%), were seeded on a 12-well plate (2 to 4×10^5 cells/well), and the resulting mixture was then cultured at 37° C. in the presence of 5% CO2 for 3 hours.
After completion of the cell culture, proteins were extracted from the cells, using RIPA Buffer (Nacalai Tesque) containing a mixture of protease inhibitors and phosphatase inhibitors. An equivalent amount of protein was separated by standard SDS-PAGE and was then transferred onto a PVDF membrane. In order to detect the activation (phosphorylation) of MEK and ERK, downstream molecules of the Ras-Raf signaling pathway, the membrane was probed with 1000-fold diluted primary antibodies {phosphorylated MEK (pMEK: #9121), phosphorylated ERK (pERK: #9101), total MEK (tMEK: #9122), and total ERK (tERK: 9102); all from Cell signaling}, and then with a 1000-fold diluted horseradish peroxidase-labeled secondary antibody against rabbit immunoglobulin G. The immunoreactive signals were colored with EzWestLumi One (ATTO), and were then detected by Fusion FX (Vilber). Signal intensity was quantified by pixel counting. Inhibition by the test compound was determined according to the following equation: […]

[3] = tested on: Vemurafenib-resistant malignant melanoma cells A375R (BRafV600E); assay: Cell growth inhibition, drug-resistant malignant melanoma A375R; settings: Homo sapiens, in the presence of 1 μM PLX (Vemurafenib), 72 hours
Experimental: (§2) The human malignant melanoma cell lines A375 and HT 144, each having BRafV600E mutation, were cultured in a medium containing 10% FBS at 37° C. in the presence of 5% CO2. At the time point in which the cells became confluent, 1 μM Vemurafenib, a BRaf inhibitor, was added to the medium, and the cells were then cultured in the presence of Vemurafenib for 1 month or more (during which the medium was exchanged every 1 week), so as to acquire Vemurafenib-resistant malignant melanoma cells A375R and HT 144R. The resulting resistant cells were suspended in a medium containing 10% FBS, and then seeded on a 96-well plate to an amount of 1 to 2×10^4 cells/well. The cells were cultured at 37° C. in the presence of 5% CO2 overnight. Thereafter, the medium was exchanged with a medium containing 0.5% FBS, to which each compound solution (final DMSO concentration: 1%) and 1 μM Vemurafenib had been added, and the cells were then cultured at 37° C. in the presence of 5% CO2 for 72 hours.
(§3) Thereafter, the number of viable cells was measured using Cell Counting Reagent (Nacalai Tesque) in accordance with the manufacturer's instructions. Inhibition by the test compound was determined according to the following equation: […]
(§4) Hereafter, Inhibition (%) by 3.3 μM compound is shown.

[4] = tested on: promyelocytic leukemia cells HL60 (N-RasQ61L); assay: Cell growth inhibition, suspension cells HL60; settings: Homo sapiens, HL-60; 1 μM, 72 hours; read-out: HL-60 (NRasQ61L) % inhibition at 1 μM
Method in brief: as §1

[5] = tested on: small cell lung cancer cells SHP77 (K-RasG12V); assay: Cell growth inhibition, suspension cells SHP77; settings: Homo sapiens, 1 μM, 72 hours, read-out: SHP77 (KRasG12V) % inhibition at 1 μM
Method in brief: as §1

[6] = tested on: Vemurafenib-resistant malignant melanoma cells HT 144R (BRafV600E); assay: Cell growth inhibition, drug-resistant malignant melanoma HT144R; settings: Homo sapiens, in the presence of 1 μM PLX (Vemurafenib), 72 hours
Experimental: as §2, §3, §4

CC(=O)N1/C(=C\c2nc3cc(C(=O)N4CCOCC4)ccc3s2)C(=O)c2ccccc21 [Example 47, (Z)-1-acetyl-2-((5-(morpholine-4-carbonyl)benzo [d]thiazol-2-yl)-methylene)-indolin-3-one]
inhibition at 1 µM [1]: 74% | inhibition at 1 µM [2]: 88% | inhibition at 3.3 µM [3]: 90% | inhibition at 1 µM [4]: 89% | inhibition at 1 µM [5]: 61% | inhibition at 3.3 µM [6]: 92%

— US20250091994A1, “RAS/RAF BINDING INHIBITOR COMPOUND” (NATIONAL UNIVERSITY CORPORATION KOBE UNIVERSITY, priority 2021, published 2025)
